Experimental data published in ChEMBL document CHEMBL1201862, “PubChem BioAssay data set” (2004).
Active and inactive are the calls of the source. Rule as the data show it: actives have a measured IC50 and inactives only a lower limit.

Molecular target: Envelope glycoprotein gp160 (Human immunodeficiency virus 1, UniProt Q6QLK5)
Test: cell-free HIV fusion peptide-binding blockers – biochemical, uHTS, fluorescence dequenching, […] (AID 1986)

Envelope glycoprotein gp160, sequence (Q6QLK5 whole entry, the tested form may be a part): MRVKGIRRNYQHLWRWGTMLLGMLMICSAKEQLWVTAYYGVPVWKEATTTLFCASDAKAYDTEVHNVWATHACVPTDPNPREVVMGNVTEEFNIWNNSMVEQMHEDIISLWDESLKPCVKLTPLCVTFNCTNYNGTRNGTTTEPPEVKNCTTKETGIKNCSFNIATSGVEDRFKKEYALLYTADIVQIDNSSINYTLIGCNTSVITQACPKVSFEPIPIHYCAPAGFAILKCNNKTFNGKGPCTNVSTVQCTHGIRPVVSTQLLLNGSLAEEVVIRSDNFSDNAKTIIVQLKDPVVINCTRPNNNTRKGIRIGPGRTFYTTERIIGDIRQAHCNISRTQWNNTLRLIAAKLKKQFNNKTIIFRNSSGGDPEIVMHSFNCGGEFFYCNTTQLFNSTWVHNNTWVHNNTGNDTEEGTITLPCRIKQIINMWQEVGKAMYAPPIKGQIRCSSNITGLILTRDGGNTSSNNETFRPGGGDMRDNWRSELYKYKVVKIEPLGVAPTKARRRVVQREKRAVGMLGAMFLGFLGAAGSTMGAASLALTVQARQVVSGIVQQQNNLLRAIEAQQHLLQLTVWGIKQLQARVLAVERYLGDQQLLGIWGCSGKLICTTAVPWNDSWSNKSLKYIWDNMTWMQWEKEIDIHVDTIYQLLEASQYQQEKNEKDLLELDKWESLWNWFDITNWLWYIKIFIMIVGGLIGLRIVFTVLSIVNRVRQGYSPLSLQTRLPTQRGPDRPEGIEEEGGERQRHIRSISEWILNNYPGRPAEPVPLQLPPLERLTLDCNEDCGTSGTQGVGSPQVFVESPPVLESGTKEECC

O=C(O)c1[nH]c2ccccc2c1C(c1ccccc1)c1c(C(=O)O)[nH]c2ccccc12
IC50: 14 µM (active)

CCc1ccc(S(=O)(=O)/N=C2\C=C(NS(=O)(=O)c3ccccc3)C(=O)c3ccccc32)cc1
IC50: 19.7 µM (active)

Cc1sc(-n2c(C)cc(/C=C3\SC(=S)NC3=O)c2C)c(C#N)c1C
IC50: 24.1 µM (active)

O=C(O)C1Nc2ccc(Br)cc2C2C=CCC12 (centres undefined)
IC50: 10.9 µM (active)
